Laboratory results from PubChem BioAssay (NCI).
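Exposure lasted 48 hours, with cells grown in 96-well plates and compounds tested at five concentrations. GI50: concentration for 50% inhibition of growth. TGI marks complete inhibition of growth.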

Legend:
Assay in all cases: NCI tumour cell line growth inhibition, 48 h
BT-549 breast = test system: BT-549 breast
PC-3 prostate = test system: PC-3 prostate
SNB-19 CNS = test system: SNB-19 CNS
SN12C renal = test system: SN12C renal
T-47D breast = test system: T-47D breast
SF-268 CNS = test system: SF-268 CNS
RXF 393 renal = test system: RXF 393 renal
OVCAR-3 ovarian = test system: OVCAR-3 ovarian
OVCAR-4 ovarian = test system: OVCAR-4 ovarian
CCRF-CEM leukemia = test system: CCRF-CEM leukemia

SMILES	GI50 (BT-549 breast) [µM]	TGI (BT-549 breast) [µM]	GI50 (PC-3 prostate) [µM]	TGI (PC-3 prostate) [µM]	GI50 (SNB-19 CNS) [µM]	TGI (SNB-19 CNS) [µM]	GI50 (SN12C renal) [µM]	TGI (SN12C renal) [µM]	GI50 (T-47D breast) [µM]	TGI (T-47D breast) [µM]	GI50 (SF-268 CNS) [µM]	TGI (SF-268 CNS) [µM]	GI50 (RXF 393 renal) [µM]	TGI (RXF 393 renal) [µM]	GI50 (OVCAR-3 ovarian) [µM]	TGI (OVCAR-3 ovarian) [µM]	GI50 (OVCAR-4 ovarian) [µM]	TGI (OVCAR-4 ovarian) [µM]	GI50 (CCRF-CEM leukemia) [µM]	TGI (CCRF-CEM leukemia) [µM]
COc1ccc(NC(=O)c2ccc(NC3=C(Cl)C(=O)N(Cc4ccccc4)C3=O)cc2)cc1	8.27	26.2	6.74	19.9	18	40.4	14.4	30.2	9.79	77.5	31.5	> 100	3.21	14.6	2.11	6.12	3.01	8.35		
CCOC(=O)c1cnc2ccc(Cl)cc2c1NCCCN(C)C	27.8	> 100	27.3	> 100	51.1	> 100	20.5	> 100	41.5	> 100	19.9	94			28.1	97.7	23.6	> 100	22.2	> 100
Clc1ccc(Cl)c(N/N=C\c2c[nH]c3ccccc23)c1	0.196	16.9	0.915	9.48	13.2	29.4	7.15	22.3			> 100	> 100	10.3	24.8	11.4	26.1	10.7	23	0.107	11.7
COc1ccc(NC(=O)CC/C(CC(=O)c2ccco2)=N/Nc2ccc([N+](=O)[O-])cc2[N+](=O)[O-])cc1						> 100		> 100				> 100		> 100		> 100		> 100		85.1
C=CCCc1cc(OC)ccc1CN(C)C(C)(C)CO						> 100		> 100				> 100		> 100		> 100		> 100		> 100
O=c1[nH]nc(-c2ccccc2)c(-c2ccccc2)c1-n1nc(-c2ccccc2)c2ccccc2c1=O								> 100				> 100				> 100		> 100		> 100
O=C1CCC/C=C\C[C@H]2C=C(Cl)C(=O)/C2=C/C[C@H](CCCCC(F)(F)F)OC(=O)CCC/C=C\C[C@H]2C=C(Cl)C(=O)/C2=C/C[C@H](CCCCC(F)(F)F)O1	0.183	0.502	0.192	0.574	0.353	1.67			0.204	1.16	0.241	1.38	0.134	0.279	0.19	0.485	0.24	3.93	0.178	0.884
COc1ccc(CN2CCc3c(Cl)nc(N)nc3C2=O)c(OC)c1	16.8	42.2			15.8	33.3	14.9	31.5	11	39.8	13.6	27.3	22.7	52.9	15.4	29.8	12.6	25.6	17	56.6
C=C1C(=O)OC2C1C(OC(=O)/C(=C/C)COC(C)=O)CC1(CO1)C1C(OC(=O)/C(=C/C)CO)C=C(C)C21 (stereo not given)						13.9		3.81				9.35		2.31		12.2		7.53		2.13
CC(=O)OC1COC(N2C(=O)C(=O)c3c(C)cc(Cl)nc32)C(OC(C)=O)C1OC(C)=O (stereo not given)						> 100		> 100				> 100		> 100		> 100		> 100		> 100
O=c1c(Cl)nsnc1Cl				39.1		49.1		48.4		> 31.6		71.3		24.8		17.1		49.4		3.27
C[N+](C)(C)CC(=O)N/N=C(/C=C/c1ccccc1)CC1OC(=O)c2ccccc21 (stereo not given)						> 100		> 100				> 100		> 100				> 100		> 100
CCc1ccc(Cc2ccc(CC)c(NC(=O)C(=O)Cc3nc4ccccc4nc3C)c2CC)c(CC)c1NC(=O)C(=O)Cc1nc2ccccc2nc1C						> 100						> 100		> 100		> 100		> 100		> 100
Nc1nc2nc3c(nc2c(=O)[nH]1)CN(c1ccc(C(=O)O)cc1)C3=O		> 100		> 100		> 100		> 100		> 100		> 100		> 100				> 100		
CCCCNC(=S)Nn1c(-c2ccccc2)nc2ccccc2c1=O								> 100				> 100		> 100				> 100		> 100
CN(C)CCCn1cnc2ncccc2c1=O						> 100		> 100				> 100		> 100		> 100		> 100		> 100
CCCOC(=O)C1CCC(=O)N1C(=O)C(Cl)Cl (stereo not given)						> 100		> 100				> 100				> 100		> 100		> 100
COC1OC(OC)C2C(c3c(C)cc(C)cc3C)=NOC12 (stereo not given)						> 100						> 100		> 100		> 100		> 100		> 100
COCCNC(=O)C1C(=O)N(CCOC)C(=O)/C1=N/N (stereo not given)						> 100		> 100				> 100				> 100				> 100
CCCCN(CCCC)C(=Nc1ccccc1)N(CCCC)CCCC						32						46.8		25.6		12.1				24.4
CCN(CC)CCn1c(=N)n(CC(O)c2ccc(Cl)c(Cl)c2)c2ccccc21 (stereo not given)	14.5	28	5.21	19.3	13.5	28.8	8.79	24.2	4.68	19.3	11.9	25.3	2.8	10.9	11.5	24	10.6	24.3		
N#Cc1c([N+](=O)[O-])cc(C(F)(F)F)cc1[N+](=O)[O-]						32.4		27.3				27.3		6.62		30.9		5.57		
